# Data as given in patent US8426620B2, “Production methods of furan fatty acids” (Kyungpook National University Industry-Academic Cooperation …, priority 2011, dated 2013).
# Entries after “also recorded” stand apart in the source; their conditions may differ.
# Test: DPPH radical scavenging (antioxidant) assay
# Conditions: for radical scavenging activity (in words): DPPH assay, up to 100 μg/mL, FIG. 8
# Method: Antioxidant activity was analyzed using 2,2-Diphenyl-1-picryhydrazyl (DPPH) assay according to the reports (22). Briefly, 50 μl of sample solution in DMSO was added to 200 μl of 200 μM DPPH radical solution in a 96-well plate. L-ascorbic acid and α-Tocopherol were used as positive controls. After 30 min of incubation at 37° C., the absorbance at 515 nm was measured. DPPH free radical scavenging activities was calculated using the equation; radical scavenging activity (%)=[1−(Asample−Ablank)/(Acontrol−Ablank)]×100. DMSO was used as a control.
Structure (SMILES),radical scavenging activity (in words),"radical scavenging activity (highest concentration tested, 100 μg/mL, 30 min at 37° C., absorbance 515 nm) [%]"
"CCCCCCCCc1ccc(CCCCCC(=O)O)o1 [7,10-EODA, 7,10-epoxy-octadeca-7,9-dienoic acid]",radical scavenging activity increasing in a dose-dependent manner; also recorded: increased dose-dependently,23
"CCCCCCCC[C@H](O)/C=C/[C@@H](O)CCCCCC(=O)O [DOD, 7,10-dihydroxy-8(E)-octadecenoic acid, reference compound]",did not show any activity,–
